Measurements as given in ChEMBL document CHEMBL1201862, “PubChem BioAssay data set” (2004).
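Results reflect a 48-hour exposure of cells in 96-well plates to compound at five concentrations. Abbreviation: GI50, concentration required for 50% inhibition of growth.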 The source made the active and inactive calls. Cut-off read from the data, not from the text of the source: active = GI50 up to about 1.1 µM and inactive = higher.

Legend:
Experiment in all cases: NCI anticancer screen, dose series, 48 h
OVCAR-4 = test system: OVCAR-4
SK-MEL-2 = test system: SK-MEL-2
SK-MEL-5 = test system: SK-MEL-5
SN12C = test system: SN12C
NCI-H23 = test system: NCI-H23
COLO 205 = test system: COLO 205
HCC 2998 = test system: HCC 2998
UO-31 = test system: UO-31
OVCAR-5 = test system: OVCAR-5
OVCAR-3 = test system: OVCAR-3
Hs-578T = test system: Hs-578T
EKVX = test system: EKVX
Malme-3M = test system: Malme-3M
UACC-257 = test system: UACC-257
T47D = test system: T47D
OVCAR-8 = test system: OVCAR-8
PC-3 = test system: PC-3
SK-MEL-28 = test system: SK-MEL-28
RPMI-8226 = test system: RPMI-8226
MDA-N = test system: MDA-N
SK-OV-3 = test system: SK-OV-3
ACHN = test system: ACHN
NCI/ADR-RES = test system: NCI/ADR-RES
TK-10 = test system: TK-10
U-251 = test system: U-251
SF-295 = test system: SF-295
NCI-H460 = test system: NCI-H460
UACC-62 = test system: UACC-62
HCT-116 = test system: HCT-116
SF-268 = test system: SF-268
RXF 393 = test system: RXF 393
HOP-62 = test system: HOP-62
SNB-19 = test system: SNB-19
MDA-MB-231 = test system: MDA-MB-231
786-0 = test system: 786-0
BT-549 = test system: BT-549
IGROV-1 = test system: IGROV-1
CCRF-CEM = test system: CCRF-CEM
MCF7 = test system: MCF7
SNB-75 = test system: SNB-75
CAKI-1 = test system: CAKI-1
MDA-MB-435 = test system: MDA-MB-435
MOLT-4 = test system: MOLT-4
HT-29 = test system: HT-29
HCT-15 = test system: HCT-15
NCI-H226 = test system: NCI-H226
NCI-H522 = test system: NCI-H522
A549 = test system: A549
DU-145 = test system: DU-145
K562 = test system: K562
M14 = test system: M14
KM12 = test system: KM12
SW-620 = test system: SW-620
HOP-92 = test system: HOP-92
A498 = test system: A498
SF-539 = test system: SF-539
HL-60 = test system: HL-60
LOX IMVI = test system: LOX IMVI

For `CCOC(=O)c1ccc(-n2nnc(C(N)=O)c2O)cc1`, the GI50 (OVCAR-4) was > 100 µM (inactive), the GI50 (SK-MEL-2) was > 100 µM (inactive) and the GI50 (SK-MEL-5) was > 100 µM (inactive). For the same molecule, the GI50 (SN12C) was > 100 µM (inactive), the GI50 (NCI-H23) was > 100 µM (inactive) and the GI50 (COLO 205) was > 100 µM (inactive). The GI50 (HCC 2998) was > 100 µM (inactive), the GI50 (UO-31) was > 100 µM (inactive) and the GI50 (OVCAR-5) was > 100 µM (inactive). The GI50 (OVCAR-3) was > 100 µM (inactive), the GI50 (Hs-578T) was > 100 µM (inactive) and the GI50 (EKVX) was > 100 µM (inactive). For the same molecule, the GI50 (Malme-3M) was > 100 µM (inactive), the GI50 (UACC-257) was > 100 µM (inactive) and the GI50 (T47D) was > 100 µM (inactive). The GI50 (OVCAR-8) was > 100 µM (inactive), the GI50 (PC-3) was > 100 µM (inactive) and the GI50 (SK-MEL-28) was > 100 µM (inactive). The GI50 (RPMI-8226) was > 100 µM (inactive), the GI50 (MDA-N) was > 100 µM (inactive) and the GI50 (SK-OV-3) was > 100 µM (inactive). For the same molecule, the GI50 (ACHN) was > 100 µM (inactive), the GI50 (NCI/ADR-RES) was > 100 µM (inactive) and the GI50 (TK-10) was > 100 µM (inactive). For the same molecule, the GI50 (U-251) was > 100 µM (inactive), the GI50 (SF-295) was > 100 µM (inactive) and the GI50 (NCI-H460) was > 100 µM (inactive). The GI50 (UACC-62) was > 100 µM (inactive), the GI50 (HCT-116) was > 100 µM (inactive) and the GI50 (SF-268) was > 100 µM (inactive). For the same molecule, the GI50 (RXF 393) was > 100 µM (inactive), the GI50 (HOP-62) was > 100 µM (inactive) and the GI50 (SNB-19) was > 100 µM (inactive). For the same molecule, the GI50 (MDA-MB-231) was > 100 µM (inactive), the GI50 (786-0) was > 100 µM (inactive) and the GI50 (BT-549) was > 100 µM (inactive). For the same molecule, the GI50 (IGROV-1) was > 100 µM (inactive), the GI50 (CCRF-CEM) was > 100 µM (inactive) and the GI50 (MCF7) was > 100 µM (inactive). For the same molecule, the GI50 (SNB-75) was > 100 µM (inactive), the GI50 (CAKI-1) was > 100 µM (inactive) and the GI50 (MDA-MB-435) was > 100 µM (inactive). The GI50 (MOLT-4) was > 100 µM (inactive), the GI50 (HT-29) was > 100 µM (inactive) and the GI50 (HCT-15) was > 100 µM. The GI50 (NCI-H226) was > 100 µM (inactive), the GI50 (NCI-H522) was > 100 µM (inactive) and the GI50 (A549) was > 100 µM (inactive). The GI50 (DU-145) was > 100 µM (inactive), the GI50 (K562) was > 100 µM (inactive) and the GI50 (M14) was > 100 µM (inactive). For the same molecule, the GI50 (KM12) was > 100 µM (inactive) and the GI50 (SW-620) was > 100 µM (inactive).

`CCOC(=O)Cn1c(C)nc2nn(Cc3ccccc3)cc2c1=O` was tested, and the GI50 (SK-MEL-2) was > 100 µM (inactive), the GI50 (SK-MEL-5) was > 100 µM (inactive) and the GI50 (SN12C) was > 100 µM (inactive). For the same molecule, the GI50 (NCI-H23) was > 100 µM (inactive), the GI50 (HCC 2998) was > 100 µM (inactive) and the GI50 (UO-31) was > 100 µM (inactive). The GI50 (OVCAR-5) was > 100 µM (inactive), the GI50 (OVCAR-3) was > 100 µM (inactive) and the GI50 (Hs-578T) was > 100 µM (inactive). The GI50 (EKVX) was > 100 µM (inactive), the GI50 (HOP-92) was > 100 µM (inactive) and the GI50 (Malme-3M) was > 100 µM (inactive). For the same molecule, the GI50 (A498) was > 100 µM (inactive), the GI50 (T47D) was > 100 µM (inactive) and the GI50 (OVCAR-8) was > 100 µM (inactive). The GI50 (PC-3) was > 100 µM (inactive), the GI50 (SK-MEL-28) was > 100 µM (inactive) and the GI50 (MDA-N) was > 100 µM (inactive). The GI50 (SK-OV-3) was > 100 µM (inactive), the GI50 (ACHN) was > 100 µM (inactive) and the GI50 (NCI/ADR-RES) was > 100 µM (inactive). For the same molecule, the GI50 (TK-10) was > 100 µM (inactive), the GI50 (U-251) was > 100 µM (inactive) and the GI50 (SF-295) was > 100 µM (inactive). The GI50 (NCI-H460) was > 100 µM (inactive), the GI50 (UACC-62) was > 100 µM (inactive) and the GI50 (HCT-116) was > 100 µM (inactive). For the same molecule, the GI50 (SF-268) was > 100 µM (inactive), the GI50 (RXF 393) was > 100 µM (inactive) and the GI50 (HOP-62) was > 100 µM (inactive). For the same molecule, the GI50 (SNB-19) was > 100 µM (inactive), the GI50 (MDA-MB-231) was > 100 µM (inactive) and the GI50 (786-0) was > 100 µM (inactive). For the same molecule, the GI50 (BT-549) was > 100 µM (inactive), the GI50 (IGROV-1) was > 100 µM (inactive) and the GI50 (CCRF-CEM) was > 100 µM (inactive). The GI50 (MCF7) was > 100 µM (inactive), the GI50 (MDA-MB-435) was > 100 µM (inactive) and the GI50 (MOLT-4) was > 100 µM (inactive). For the same molecule, the GI50 (HT-29) was > 100 µM (inactive), the GI50 (SF-539) was > 100 µM (inactive) and the GI50 (HCT-15) was > 100 µM. The GI50 (NCI-H226) was > 100 µM (inactive), the GI50 (A549) was > 100 µM (inactive) and the GI50 (DU-145) was > 100 µM (inactive). For the same molecule, the GI50 (K562) was > 100 µM (inactive), the GI50 (M14) was > 100 µM (inactive) and the GI50 (KM12) was > 100 µM (inactive). For the same molecule, the GI50 (SW-620) was > 100 µM (inactive).

`CC(C)=CCC/C(C)=C/CC/C(C)=C/CSc1ccc(Cl)cc1C(=O)O` was tested, and the GI50 (HL-60) was 22.2 µM (inactive), the GI50 (OVCAR-4) was 27.7 µM (inactive) and the GI50 (SK-MEL-2) was 15 µM (inactive). The GI50 (SK-MEL-5) was 23.4 µM (inactive), the GI50 (SN12C) was 26.3 µM (inactive) and the GI50 (LOX IMVI) was 18.1 µM (inactive). The GI50 (NCI-H23) was 17.7 µM (inactive), the GI50 (COLO 205) was 22.4 µM (inactive) and the GI50 (HCC 2998) was 20.5 µM (inactive). The GI50 (UO-31) was 17.5 µM (inactive), the GI50 (OVCAR-5) was 18.9 µM (inactive) and the GI50 (OVCAR-3) was 17 µM (inactive). The GI50 (Hs-578T) was 23.2 µM (inactive), the GI50 (EKVX) was 18.6 µM (inactive) and the GI50 (HOP-92) was 22.2 µM (inactive). The GI50 (Malme-3M) was 19.2 µM (inactive), the GI50 (A498) was 19.8 µM (inactive) and the GI50 (UACC-257) was 27.8 µM (inactive). The GI50 (T47D) was > 10 µM (inactive), the GI50 (OVCAR-8) was 20 µM (inactive) and the GI50 (PC-3) was 16.2 µM (inactive). The GI50 (SK-MEL-28) was 17.3 µM (inactive), the GI50 (RPMI-8226) was 22.6 µM (inactive) and the GI50 (MDA-N) was 29.4 µM (inactive). The GI50 (SK-OV-3) was 17.3 µM (inactive), the GI50 (ACHN) was 18.5 µM (inactive) and the GI50 (NCI/ADR-RES) was > 10 µM (inactive). For the same molecule, the GI50 (TK-10) was 19.2 µM (inactive), the GI50 (U-251) was 17.5 µM (inactive) and the GI50 (SF-295) was 17.4 µM (inactive). The GI50 (NCI-H460) was 18.7 µM (inactive), the GI50 (UACC-62) was 17.9 µM (inactive) and the GI50 (HCT-116) was 17.8 µM (inactive). The GI50 (SF-268) was 17.9 µM (inactive), the GI50 (RXF 393) was 24.3 µM (inactive) and the GI50 (HOP-62) was 14.9 µM (inactive). For the same molecule, the GI50 (SNB-19) was 18.4 µM (inactive), the GI50 (MDA-MB-231) was 27 µM (inactive) and the GI50 (786-0) was 17.1 µM (inactive). For the same molecule, the GI50 (BT-549) was 20.2 µM (inactive), the GI50 (IGROV-1) was 17.5 µM (inactive) and the GI50 (CCRF-CEM) was 21.2 µM (inactive). The GI50 (MCF7) was 17.3 µM (inactive), the GI50 (SNB-75) was 18.7 µM (inactive) and the GI50 (CAKI-1) was 25.1 µM (inactive). For the same molecule, the GI50 (MDA-MB-435) was 20.2 µM (inactive), the GI50 (MOLT-4) was 23.1 µM (inactive) and the GI50 (HT-29) was 21.1 µM (inactive). The GI50 (SF-539) was 18.9 µM (inactive), the GI50 (HCT-15) was 20.4 µM and the GI50 (NCI-H226) was 17.4 µM (inactive). The GI50 (A549) was 16.5 µM (inactive), the GI50 (DU-145) was 23.9 µM (inactive) and the GI50 (K562) was 25.5 µM (inactive). For the same molecule, the GI50 (M14) was 19.6 µM (inactive), the GI50 (KM12) was 17 µM (inactive) and the GI50 (SW-620) was 22 µM (inactive).
